Experimental data from ChEMBL document CHEMBL5584354, “Impact of Conjugation of the Reactive Oxygen Species (ROS)-Generating Catalytic Moiety with Membrane-Active Antimicrobial Peptoids: Promoting Multitarget Mechanism and Enhancing Selectivity” (J Med Chem, 2024).
In brackets after ≈: the same amount, converted by molar mass. Activity calls are given as the source filed them. The calls are words filed in the database; no cut-off is given here. Non-standard residues stand in square brackets, D forms with d. Residues, ends and D or L forms follow the SMILES beside them. *: point of attachment. X1 = NC(=O)[C@H](Cc1c[nH]cn1)NC(=O)CNC(=O)[C@@H](N)CN*; Gly(N(CH2)2(3-indolyl)) = O=C(O)CNCCc1c[nH]c2ccccc12; Nspe = C[C@H](NCC(=O)O)c1ccccc1; Nlys = NCCCCNCC(=O)O

Columns and labels:
Escherichia coli [1] = experiment: Antibacterial activity against Escherichia coli ATCC 25922 assessed as inhibition of bacterial growth incubated for 24 hrs by broth dilution method; assay type: functional
Staphylococcus aureus = experiment: Antibacterial activity against Staphylococcus aureus ATCC 25923 assessed as inhibition of bacterial growth incubated for 24 hrs by broth dilution method; assay type: functional
[2] = Hemolytic activity in male Sprague-Dawley rat erythrocytes at 25 uM incubated for 1 hr by absorbance based method relative to control; assay type: toxicity, cell-based, Erythrocyte; details: read-out: Activity
[3] = Hemolytic activity in male Sprague-Dawley rat erythrocytes at 50 uM incubated for 1 hr by absorbance based method relative to control; assay type: toxicity, cell-based, Erythrocyte; details: read-out: Activity
[4] = Hemolytic activity in male Sprague-Dawley rat erythrocytes at 100 uM incubated for 1 hr by absorbance based method relative to control; assay type: toxicity, cell-based, Erythrocyte; details: read-out: Activity
Erythrocyte = experiment: Hemolytic activity in male Sprague-Dawley rat erythrocytes assessed as concentration required for 10% hemolysis incubated for 1 hr by absorbance based method; assay type: toxicity, cell-based
[5] = Hemolytic activity in male Sprague-Dawley rat erythrocytes assessed as concentration required for 50% hemolysis incubated for 1 hr by absorbance based method; assay type: toxicity, cell-based, Erythrocyte
[6] = Selectivity index, ratio of HC10 for hemolytic activity in male Sprague-Dawley rat erythrocytes to MIC for antibacterial activity against Escherichia coli ATCC 25922; assay type: toxicity; details: read-out: Selectivity Index
HaCaT = experiment: Cytotoxicity against human HaCaT cells assessed as cell killing incubated for 24 hrs by MTS assay; assay type: toxicity, cell-based
MRC5 = experiment: Cytotoxicity against human MRC5 cells assessed as cell killing incubated for 24 hrs by MTS assay; assay type: toxicity, cell-based; details: mrc5, 24 h
RAW264.7 [7] = experiment: Cytotoxicity against mouse RAW264.7 cells assessed as cell killing incubated for 24 hrs by MTS assay; assay type: toxicity, cell-based; details: raw264.7, 24 h
HEK293 = experiment: Cytotoxicity against HEK293 cells assessed as cell killing incubated for 24 hrs by MTS assay; assay type: toxicity, cell-based; details: human, hek293, 24 h
Escherichia coli [8] = experiment: Antibacterial activity against carbapenem-resistant Escherichia coli NMS11035 harboring extended-spectrum beta-lactamase assessed as inhibition of bacterial growth incubated for 24 hrs by broth dilution method; assay type: functional
Escherichia coli [9] = experiment: Antibacterial activity against colistin-resistant Escherichia coli NMS12 harboring extended-spectrum beta-lactamase assessed as inhibition of bacterial growth incubated for 24 hrs by broth dilution method; assay type: functional
Acinetobacter baumannii = experiment: Antibacterial activity against carbapenem-resistant Acinetobacter baumannii NMS1707 harboring extended-spectrum beta-lactamase assessed as inhibition of bacterial growth incubated for 24 hrs by broth dilution method; assay type: functional
Klebsiella pneumoniae = experiment: Antibacterial activity against carbapenem-resistant Klebsiella pneumoniae NMS118 harboring extended-spectrum beta-lactamase assessed as inhibition of bacterial growth incubated for 24 hrs by broth dilution method; assay type: functional
Cell membrane [10] = experiment: Disruption of outer membrane in Escherichia coli ATCC 25922 assessed as increase in absorbance measured every 5 mins for 90 mins by nitrocefin assay; assay type: cell membranes; details: dose 0-25 µM
Cell membrane [11] = experiment: Disruption of inner membrane in Escherichia coli ATCC 25922 assessed as increase in absorbance incubated for 1 hr by ONPG assay; assay type: cell membranes; details: dose 0-25 µM
Lipopolysaccharide (LPS) = experiment: Binding affinity to Escherichia coli O111:B4 LPS at 0 to 25 uM BODIPY-TR-cadaverine substitution assay; assay type: subcellular; details: dose 0-25 µM
DNA = experiment: Binding affinity to pUC19 plasmid DNA (unknown origin) assessed as smearing and retardation of DNA bands at 25 uM incubated for 2 hrs by agarose gel imaging method; assay type: nucleic-acid assay
Escherichia coli [12] = experiment: Induction of lipid peroxidation in Escherichia coli ATCC 25922 assessed as increase in MDA level at 10 uM incubated for 2 hrs by TBARS assay; assay type: functional, organism-based
Escherichia coli [13] = experiment: Induction of lipid peroxidation in Escherichia coli ATCC 25922 assessed as increase in green fluorescence at 12.5 uM incubated for 1 hrs by BODIPY 581/591 C11 dye based confocal microscopic analysis; assay type: functional, organism-based
Escherichia coli [14] = experiment: Induction of lipid peroxidation in Escherichia coli ATCC 25922 at 12.5 uM incubated for 1 hrs by BODIPY 581/591 C11 dye based flow cytometry analysis; assay type: functional, organism-based
[15] = Cytotoxicity against mouse RAW264.7 cells assessed as cell viability at 10 uM incubated for 24 hrs by […] relative to control; assay type: toxicity, cell-based; details: read-out: Activity
[16] = Cytotoxicity against mouse RAW264.7 cells assessed as cell viability at 20 uM incubated for 24 hrs by […] relative to control; assay type: toxicity, cell-based; details: read-out: Activity
RAW264.7 [17] = experiment: Antiinflammatory activity in LPS-stimulated mouse RAW264.7 cells assessed as reduction in TNFalpha production at 10 uM incubated for 16 hrs by ELISA relative to control; assay type: functional; parameters: scale not given: the % may be the effect or the level left
RAW264.7 [18] = experiment: Antiinflammatory activity in LPS-stimulated mouse RAW264.7 cells assessed as reduction in IL-6 production at 10 uM incubated for 16 hrs by ELISA relative to control; assay type: functional; parameters: scale not given: the % may be the effect or the level left
RAW264.7 [19] = experiment: Antiinflammatory activity in LPS-stimulated mouse RAW264.7 cells assessed as reduction in IL-1beta production at 10 uM incubated for 16 hrs by ELISA relative to control; assay type: functional; parameters: scale not given: the % may be the effect or the level left
RAW264.7 [20] = experiment: Antiinflammatory activity in LPS-stimulated mouse RAW264.7 cells assessed as reduction in nitrite production at 10 uM incubated for 16 hrs by ELISA relative to control; assay type: functional; parameters: scale not given: the % may be the effect or the level left
[21] = Cytotoxicity against mouse RAW264.7 cells assessed as cell survival at 5 uM incubated for 24 hrs by […] relative to control; assay type: toxicity, cell-based; details: read-out: Survival
[22] = Cytotoxicity against mouse RAW264.7 cells assessed as cell survival at 5 uM incubated for 24 hrs in presence of nickel by […] relative to control; assay type: toxicity, cell-based; details: read-out: Survival
[23] = Cytotoxicity against mouse RAW264.7 cells assessed as cell survival at 5 uM incubated for 24 hrs in presence of copper by […] relative to control; assay type: toxicity, cell-based; details: read-out: Survival
[24] = Cytotoxicity against mouse L929 cells assessed as reduction in cell survival at 6.3 uM incubated for 24 hrs by WST-8 assay relative to control; assay type: toxicity, cell-based; details: read-out: Survival
[25] = Cytotoxicity against HEK293 cells assessed as reduction in cell survival at 6.3 uM incubated for 24 hrs by WST-8 assay relative to control; assay type: toxicity, cell-based; details: human, read-out: Survival

C[C@@H](c1ccccc1)N(CC(=O)N(CCCCN)CC(=O)N(CCc1c[nH]c2ccccc12)CC(=O)N(CCc1c[nH]c2ccccc12)CC(N)=O)C(=O)CN(CCCCN)C(=O)CN(CCCCN)C(=O)CN(C(=O)CN(C(=O)CN(CCCCN)C(=O)CN(C(=O)CN(C(=O)CNCCCCN)[C@@H](C)c1ccccc1)[C@@H](C)c1ccccc1)[C@@H](C)c1ccccc1)[C@@H](C)c1ccccc1 (H-[Nlys][Nspe][Nspe][Nlys][Nspe][Nspe][Nlys][Nlys][Nspe][Nlys][Gly(N(CH2)2(3-indolyl))][Gly(N(CH2)2(3-indolyl))]-NH2)
MIC (Escherichia coli [1]): 6.3 µM (≈ 11.7 µg/mL)
MIC (Staphylococcus aureus): 6.3 µM (≈ 11.7 µg/mL)
hemolysis at 1 h, 25 µM [2]: 2.72%
hemolysis at 1 h, 50 µM [3]: 7.85%
hemolysis at 1 h, 100 µM [4]: 6.7%
HC10 (Erythrocyte): > 100 µM
HC50 at 1 h [5]: > 100 µM
selectivity ratio [6]: > 15.8
LC50 (HaCaT): 18.8 µM
LC50 (MRC5): 11.8 µM
LC50 (RAW264.7 [7]): 14.9 µM
LC50 (HEK293): 16.3 µM
MIC (Escherichia coli [8]): 6.3 µM (≈ 11.7 µg/mL)
MIC (Escherichia coli [9]): 12.5 µM (≈ 23.3 µg/mL)
MIC (Acinetobacter baumannii): 3.1 µM (≈ 5.78 µg/mL)
MIC (Klebsiella pneumoniae): 12.5 µM (≈ 23.3 µg/mL)
Activity (Cell membrane [10]): Dose-Dependent Effect
Activity (Cell membrane [11]): Dose-Dependent Effect
Activity (Lipopolysaccharide (LPS)): Active
Activity (DNA): Active
Activity (Escherichia coli [12]): Active
Activity (Escherichia coli [13]): Active
Activity (Escherichia coli [14]): Active
viability at 24 h, 10 µM [15]: 55.9%
viability at 24 h, 20 µM [16]: 14.7%
Activity (RAW264.7 [17]): 54.4%
Activity (RAW264.7 [18]): 99%
Activity (RAW264.7 [19]): 72.9%
Activity (RAW264.7 [20]): 88.7%

C[C@@H](c1ccccc1)N(CC(N)=O)C(=O)CN(CCCCN)C(=O)CN(C(=O)CN(C(=O)CN(CCCCN)C(=O)CN(C(=O)CN(C(=O)CN(CCCCN)C(=O)CN(C(=O)CN(C(=O)CNCCCCN)[C@@H](C)c1ccccc1)[C@@H](C)c1ccccc1)[C@@H](C)c1ccccc1)[C@@H](C)c1ccccc1)[C@@H](C)c1ccccc1)[C@@H](C)c1ccccc1 (H-[Nlys][Nspe][Nspe][Nlys][Nspe][Nspe][Nlys][Nspe][Nspe][Nlys][Nspe]-NH2)
MIC (Escherichia coli [1]): 6.3 µM (≈ 10.4 µg/mL)
MIC (Staphylococcus aureus): 1.6 µM (≈ 2.65 µg/mL)
hemolysis at 1 h, 25 µM [2]: 40.3%
hemolysis at 1 h, 50 µM [3]: 97.6%
hemolysis at 1 h, 100 µM [4]: 96.5%
HC10 (Erythrocyte): 9.64 µM
HC50 at 1 h [5]: 28.3 µM
selectivity ratio [6]: 1.5

C[C@@H](c1ccccc1)N(CC(=O)NC[C@H](N)C(=O)NCC(=O)N[C@@H](Cc1c[nH]cn1)C(N)=O)C(=O)CN(CCCCN)C(=O)CN(C(=O)CN(C(=O)CN(CCCCN)C(=O)CN(C(=O)CN(C(=O)CN(CCCCN)C(=O)CN(C(=O)CN(C(=O)CNCCCCN)[C@@H](C)c1ccccc1)[C@@H](C)c1ccccc1)[C@@H](C)c1ccccc1)[C@@H](C)c1ccccc1)[C@@H](C)c1ccccc1)[C@@H](C)c1ccccc1 (H-[Nlys][Nspe][Nspe][Nlys][Nspe][Nspe][Nlys][Nspe][Nspe][Nlys][Nspe]-X1)
MIC (Escherichia coli [1]): 12.5 µM (≈ 24.2 µg/mL)
MIC (Staphylococcus aureus): 12.5 µM (≈ 24.2 µg/mL)
hemolysis at 1 h, 25 µM [2]: 0.04%
hemolysis at 1 h, 50 µM [3]: 6.22%
hemolysis at 1 h, 100 µM [4]: 19.1%
HC10 (Erythrocyte): 62.6 µM
HC50 at 1 h [5]: > 100 µM
selectivity ratio [6]: 5

C[C@@H](c1ccccc1)N(CC(=O)NCC(=O)NC[C@H](N)C(=O)NCC(=O)N[C@@H](Cc1c[nH]cn1)C(N)=O)C(=O)CN(CCCCN)C(=O)CN(C(=O)CN(C(=O)CN(CCCCN)C(=O)CN(C(=O)CN(C(=O)CN(CCCCN)C(=O)CN(C(=O)CN(C(=O)CNCCCCN)[C@@H](C)c1ccccc1)[C@@H](C)c1ccccc1)[C@@H](C)c1ccccc1)[C@@H](C)c1ccccc1)[C@@H](C)c1ccccc1)[C@@H](C)c1ccccc1 (H-[Nlys][Nspe][Nspe][Nlys][Nspe][Nspe][Nlys][Nspe][Nspe][Nlys][Nspe]G-X1)
MIC (Escherichia coli [1]): 12.5 µM (≈ 24.9 µg/mL)
MIC (Staphylococcus aureus): 12.5 µM (≈ 24.9 µg/mL)
hemolysis at 1 h, 25 µM [2]: 2.02%
hemolysis at 1 h, 50 µM [3]: 8.79%
hemolysis at 1 h, 100 µM [4]: 23.2%
HC10 (Erythrocyte): 51.1 µM
HC50 at 1 h [5]: > 100 µM
selectivity ratio [6]: 4

CC[C@H](C)[C@H](NC(=O)CN)C(=O)NCC(=O)N[C@@H](C)C(=O)N[C@H](C(=O)N[C@@H](CC(C)C)C(=O)N[C@@H](CCCCN)C(=O)N[C@H](C(=O)N[C@@H](CC(C)C)C(=O)N[C@H](C(=O)N[C@H](C(=O)NCC(=O)N[C@@H](CC(C)C)C(=O)N1CCC[C@H]1C(=O)N[C@@H](C)C(=O)N[C@@H](CC(C)C)C(=O)N[C@H](C(=O)N[C@@H](CO)C(=O)N[C@@H](Cc1c[nH]c2ccccc12)C(=O)N[C@H](C(=O)N[C@@H](CCCCN)C(=O)N[C@@H](CCCNC(=N)N)C(=O)N[C@@H](CCCCN)C(=O)N[C@@H](CCCNC(=N)N)C(=O)N[C@@H](CCC(N)=O)C(=O)N[C@@H](CCC(N)=O)C(N)=O)[C@@H](C)CC)[C@@H](C)CC)[C@@H](C)O)[C@@H](C)O)C(C)C)C(C)C [MELITTIN]
viability at 24 h, 5 µM [21]: < 24.6%
viability at 24 h, 5 µM [22]: < 24.6%
viability at 24 h, 5 µM [23]: < 24.6%
viability at 24 h, 6.3 µM [24]: < 21.5%
viability at 24 h, 6.3 µM [25]: < 21.5%
